Measured values: the NIST ThermoML archive (doi:10.1021/je060271a)

Settings: 343.15 K, Liquid, Vibrating tube method

CCCCCCC(=O)OCC(COC(=O)CCCCCC)(COC(=O)CCCCCC)COC(=O)CCCCCC [pentaerythritol tetraheptanoate]
Settings | mass density [kg/m3]
476.1 kPa | 940.9
482 kPa | 941
488.1 kPa | 940.8
495.4 kPa | 940.9
502 kPa | 940.9
508.7 kPa | 940.9
517.2 kPa | 941
524.5 kPa | 941
532 kPa | 941.1
540.9 kPa | 940.9
548.4 kPa | 941
556.3 kPa | 941.1
566.3 kPa | 941.1
574.9 kPa | 941
583.8 kPa | 940.9
594.9 kPa | 941
603.8 kPa | 941
613.5 kPa | 941.1
625.7 kPa | 941.1
635.8 kPa | 941.1
646.5 kPa | 941
659.6 kPa | 940.9
671.2 kPa | 941.2
682.7 kPa | 941.2
697.1 kPa | 941.1
710.1 kPa | 941.2
724 kPa | 941.1
738.3 kPa | 941
752.5 kPa | 941.1
767.1 kPa | 941.2
785.4 kPa | 941.2
801.2 kPa | 941.1
817.7 kPa | 941.3
834.7 kPa | 941.2
856.1 kPa | 941.1
874 kPa | 941.2
893.8 kPa | 941.3
917.4 kPa | 941.2
938.8 kPa | 941.3
961.5 kPa | 941.3
984.8 kPa | 941.2
1008.1 kPa | 941.3
1031.5 kPa | 941.3
1061.2 kPa | 941.5
1083.6 kPa | 941.4
1098.2 kPa | 941.3
1114.7 kPa | 941.4
1128.5 kPa | 941.4
1142.9 kPa | 941.4
1159.9 kPa | 941.4
1174.6 kPa | 941.5
1189.9 kPa | 941.6
1208.5 kPa | 941.5
1224.5 kPa | 941.5
1241 kPa | 941.6
1261 kPa | 941.6
1278.5 kPa | 941.6
1296.2 kPa | 941.6
1314.1 kPa | 941.6
1336.3 kPa | 941.6
1355.4 kPa | 941.6
1375.4 kPa | 941.5
1441 kPa | 941.6
1467.4 kPa | 941.7
1489.7 kPa | 941.8
1512.2 kPa | 941.7
1535.7 kPa | 941.8
1564.1 kPa | 941.8
1588.8 kPa | 941.8
1613.6 kPa | 941.8
1644.5 kPa | 941.8
1671.3 kPa | 941.8
1699 kPa | 941.9
1727.1 kPa | 941.8
1762.2 kPa | 941.9
1792.2 kPa | 941.9
1821.9 kPa | 941.8
1847.4 kPa | 942
1859.8 kPa | 941.9
1867.2 kPa | 942
1876.6 kPa | 942
1884.6 kPa | 942.1
1892.9 kPa | 942
1901.2 kPa | 942
1911 kPa | 942.1
1919.1 kPa | 942
1927.8 kPa | 942.1
1937.7 kPa | 942.1
1946.9 kPa | 942.1
1955.4 kPa | 942.1
1964.1 kPa | 942.1
1974.3 kPa | 942.1
1983.3 kPa | 942.1
1992.2 kPa | 942
2001 kPa | 942.1
2012 kPa | 942.2
2021 kPa | 942.2
2030.2 kPa | 942.1
2040.9 kPa | 942.1
2050.5 kPa | 942.1
2059.8 kPa | 942.2
2069.4 kPa | 942.3
2079.3 kPa | 942.2
2090.4 kPa | 942.2
2099.8 kPa | 942.2
2111.2 kPa | 942.2
2121.3 kPa | 942.1
2130.8 kPa | 942.3
2142.6 kPa | 942.2
2152.5 kPa | 942.2
2162.2 kPa | 942.3
2172.5 kPa | 942.2
2184.4 kPa | 942.3
2195 kPa | 942.3
2206.1 kPa | 942.2
2216.5 kPa | 942.3
2228.9 kPa | 942.4
2239.4 kPa | 942.3
2249.8 kPa | 942.2
2260.8 kPa | 942.3
2273.8 kPa | 942.3
2284.7 kPa | 942.3
2295.3 kPa | 942.4
2308.5 kPa | 942.3
2319.6 kPa | 942.4
2330.5 kPa | 942.4
2344.6 kPa | 942.3
2356.7 kPa | 942.4
2368 kPa | 942.5
2379.5 kPa | 942.3
2390.7 kPa | 942.3
2405 kPa | 942.2
2416.9 kPa | 942.4
2428.7 kPa | 942.4
2442.8 kPa | 942.5
2454.7 kPa | 942.4
2466.9 kPa | 942.5
2481.6 kPa | 942.5
2493.9 kPa | 942.5
2506.3 kPa | 942.7
2518.9 kPa | 942.4
2534.2 kPa | 942.4
2546.7 kPa | 942.6
2559.3 kPa | 942.5
2574.1 kPa | 942.5
2587.4 kPa | 942.5
2600.6 kPa | 942.5
2616.2 kPa | 942.5
2629.4 kPa | 942.6
2642.8 kPa | 942.7
2656.5 kPa | 942.6
2672.6 kPa | 942.7
2686.5 kPa | 942.7
2700.9 kPa | 942.7
2714.7 kPa | 942.6
2731.4 kPa | 942.6
2745.6 kPa | 942.6
2759.8 kPa | 942.7
2777 kPa | 942.7
2791.7 kPa | 942.6
2806.1 kPa | 942.7
2823.8 kPa | 942.7
2838.2 kPa | 942.7
2853.3 kPa | 942.7
2871.1 kPa | 942.8
2886.2 kPa | 942.8
2902 kPa | 942.8
2917.3 kPa | 942.9
2935.8 kPa | 942.8
2951.4 kPa | 942.8
2967.4 kPa | 942.8
2986.5 kPa | 942.9
3002.7 kPa | 942.8
3018.9 kPa | 942.9
3038.1 kPa | 942.9
3054.6 kPa | 942.8
3071.2 kPa | 943
3088.2 kPa | 943
3108.3 kPa | 943
3125.5 kPa | 942.9
3142.7 kPa | 943
3163.3 kPa | 942.9
3181 kPa | 943
3198.1 kPa | 943
3219.1 kPa | 943
3237.1 kPa | 943
3254.6 kPa | 943
3276.5 kPa | 943.1
3294.7 kPa | 943.2
3313 kPa | 943.2
3335.1 kPa | 943.2
3354.3 kPa | 943.1
3373.4 kPa | 943.2
3392.3 kPa | 943
3411.7 kPa | 943.3
3435.1 kPa | 943.2
3454.3 kPa | 943.2
3473.9 kPa | 943.2
3497.6 kPa | 943.2
3517.4 kPa | 943.2
3537.3 kPa | 943.3
3561.7 kPa | 943.3
3582.2 kPa | 943.4
3603.3 kPa | 943.2
3625.8 kPa | 943.3
3646.8 kPa | 943.3
3672.1 kPa | 943.3
3693.4 kPa | 943.5
3715.2 kPa | 943.4
3736.7 kPa | 943.4
3763.2 kPa | 943.5
3785.2 kPa | 943.4
3807.8 kPa | 943.5
3834.6 kPa | 943.5
3857.8 kPa | 943.4
3885.7 kPa | 943.5
3909.5 kPa | 943.5
3934.6 kPa | 943.5
3958.1 kPa | 943.7
3981.8 kPa | 943.5
4005.9 kPa | 943.6
4035 kPa | 943.6
4059.1 kPa | 943.7
4088.5 kPa | 943.7
